Common to all, as to type: cell-based
Experiment [1] has as its target T1, human Nav1.7 channels stably expressed in HEK 293 cells (Homo sapiens, UniProt Q15858).
T1 construct: expressed in transfected cells
Kind of experiment: IonWorks Quattro automated patch-clamp, sodium current, inactivated state block. The following applies: read-out: potency for the Nav 1.7 sodium ion channel (as measured by IonWorks). The protocol: (§1) Compounds were tested on human Nav1.7 and Nav1.5 channels stably expressed in HEK 293 cells. […] Cells were sealed on a planar substrate using the Population Patch Plate (PPC) technology. Electrical access was obtained using both nystatin and amphotericin. A double-pulse protocol was used for the determination of IC50 values for inactivated state block. Nav1.7 and Nav1.5 expressing cells were voltage clamped at −100 mV and −110 mV, respectively. A depolarizing prepulse to −10 mV (Nav1.7) or −30 mV (Nav1.5) for 1000 ms followed by a 10 ms repolarization to −100 mV (Nav1.7) or −110 mV (Nav1.5) was given to generate fractional channel inactivation of ˜50%, followed by a 10 ms test pulse to −10 mV (Nav1.7) or −30 mV (Nav1.5) to measure peak current in control conditions and after compound addition. The following recording solutions were used (mM). External: 150 NaCl, 2 CaCl2, 5 KCl, 1 Mg Cl2, 10 HEPES, 12 Dextrose; internal: 120 CsF, 30 CsCl, 10 EGTA, 5 HEPES, 5 NaF, 2 MgCl2.
(§2) For all electrophysiology experiments, offline analysis was used to correct for current rundown and to determine percent inhibition as a function of drug concentration. IC50 values were determined by fitting to the Hill equation.
Background: In patch-clamp work, channel activity is measured electrically.

Experiment [2] deals with T2, human Nav1.5 channels stably expressed in HEK 293 cells (Homo sapiens, UniProt Q14524).
T2 construct: expressed in transfected cells
The experiment is described as above. The following applies: selectivity over Nav1.5. On the procedure:
as §1, §2

In experiment [3] the target is T2, human Nav1.5 channels stably expressed in HEK 293 cells. In words: PatchXpress 7000 automated patch-clamp, sodium current. Particulars: selectivity over Nav1.5. The essentials:
(§3)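 IC50 values came from Hill-equation fits of rundown-corrected inhibition. PatchXpress recordings at 22° C held cells 20 mV negative to V0.5 inact and applied 10 Hz trains of 30 ms steps to −20 mV (Nav1.7) or an 8000 ms prepulse 7 mV positive to V0.5 inact. […]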

Experiment [4] addresses T1, human Nav1.7 channels stably expressed in HEK 293 cells. The description is as above. Particulars: 22° C., read-out: potency for the Nav 1.7 sodium ion channel (as measured by PatchXpress). The procedure, abridged: as §3

T1 sequence (Q15858 whole entry): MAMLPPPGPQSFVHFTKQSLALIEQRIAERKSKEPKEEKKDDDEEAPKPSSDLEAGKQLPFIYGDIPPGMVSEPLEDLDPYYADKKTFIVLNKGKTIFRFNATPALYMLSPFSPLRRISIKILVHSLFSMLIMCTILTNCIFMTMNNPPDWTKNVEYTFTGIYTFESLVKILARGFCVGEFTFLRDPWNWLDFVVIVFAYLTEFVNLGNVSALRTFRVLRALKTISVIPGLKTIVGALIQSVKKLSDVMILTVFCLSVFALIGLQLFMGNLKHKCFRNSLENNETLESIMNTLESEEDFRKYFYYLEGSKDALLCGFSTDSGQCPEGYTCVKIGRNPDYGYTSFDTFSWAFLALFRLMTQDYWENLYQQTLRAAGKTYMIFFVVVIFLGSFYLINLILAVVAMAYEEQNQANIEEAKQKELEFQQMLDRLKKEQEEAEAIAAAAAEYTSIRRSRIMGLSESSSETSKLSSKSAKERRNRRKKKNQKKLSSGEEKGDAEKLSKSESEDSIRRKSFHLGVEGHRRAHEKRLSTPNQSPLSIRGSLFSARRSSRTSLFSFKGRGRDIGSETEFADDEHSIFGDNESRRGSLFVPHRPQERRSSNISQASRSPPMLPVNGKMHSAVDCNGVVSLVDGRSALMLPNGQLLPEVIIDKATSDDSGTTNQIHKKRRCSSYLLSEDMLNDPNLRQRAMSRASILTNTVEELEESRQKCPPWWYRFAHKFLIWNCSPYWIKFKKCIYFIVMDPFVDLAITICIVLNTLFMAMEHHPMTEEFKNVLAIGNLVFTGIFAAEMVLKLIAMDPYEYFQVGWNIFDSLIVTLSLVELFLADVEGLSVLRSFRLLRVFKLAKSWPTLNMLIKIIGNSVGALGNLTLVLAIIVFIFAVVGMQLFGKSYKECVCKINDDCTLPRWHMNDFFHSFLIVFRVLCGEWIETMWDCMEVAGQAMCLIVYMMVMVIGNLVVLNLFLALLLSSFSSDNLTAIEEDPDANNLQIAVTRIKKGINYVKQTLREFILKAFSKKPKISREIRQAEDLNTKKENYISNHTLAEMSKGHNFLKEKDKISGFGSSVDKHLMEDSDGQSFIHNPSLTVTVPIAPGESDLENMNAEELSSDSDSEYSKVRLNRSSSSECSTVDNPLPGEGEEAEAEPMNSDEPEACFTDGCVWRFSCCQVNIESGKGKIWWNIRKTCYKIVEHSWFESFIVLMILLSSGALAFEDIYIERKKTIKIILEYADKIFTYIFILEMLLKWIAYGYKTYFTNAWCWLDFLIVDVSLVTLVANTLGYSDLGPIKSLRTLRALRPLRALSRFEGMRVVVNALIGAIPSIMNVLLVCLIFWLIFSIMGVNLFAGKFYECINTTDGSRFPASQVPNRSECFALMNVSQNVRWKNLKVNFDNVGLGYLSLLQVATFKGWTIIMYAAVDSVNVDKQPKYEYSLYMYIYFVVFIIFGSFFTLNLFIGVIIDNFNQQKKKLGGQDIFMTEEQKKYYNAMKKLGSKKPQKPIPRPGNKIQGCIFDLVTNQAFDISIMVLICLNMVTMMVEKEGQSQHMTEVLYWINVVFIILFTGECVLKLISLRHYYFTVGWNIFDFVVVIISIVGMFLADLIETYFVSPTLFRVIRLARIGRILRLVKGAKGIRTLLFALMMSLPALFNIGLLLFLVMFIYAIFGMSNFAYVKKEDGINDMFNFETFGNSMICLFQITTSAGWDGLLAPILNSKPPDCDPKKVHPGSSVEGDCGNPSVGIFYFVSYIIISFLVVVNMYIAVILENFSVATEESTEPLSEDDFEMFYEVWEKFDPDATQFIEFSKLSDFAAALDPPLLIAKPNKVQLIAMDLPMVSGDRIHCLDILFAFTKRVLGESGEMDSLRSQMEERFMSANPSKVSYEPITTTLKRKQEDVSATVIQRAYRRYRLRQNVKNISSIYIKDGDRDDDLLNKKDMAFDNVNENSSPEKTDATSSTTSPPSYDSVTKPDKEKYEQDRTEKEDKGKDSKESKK
T2 sequence (Q14524 whole entry): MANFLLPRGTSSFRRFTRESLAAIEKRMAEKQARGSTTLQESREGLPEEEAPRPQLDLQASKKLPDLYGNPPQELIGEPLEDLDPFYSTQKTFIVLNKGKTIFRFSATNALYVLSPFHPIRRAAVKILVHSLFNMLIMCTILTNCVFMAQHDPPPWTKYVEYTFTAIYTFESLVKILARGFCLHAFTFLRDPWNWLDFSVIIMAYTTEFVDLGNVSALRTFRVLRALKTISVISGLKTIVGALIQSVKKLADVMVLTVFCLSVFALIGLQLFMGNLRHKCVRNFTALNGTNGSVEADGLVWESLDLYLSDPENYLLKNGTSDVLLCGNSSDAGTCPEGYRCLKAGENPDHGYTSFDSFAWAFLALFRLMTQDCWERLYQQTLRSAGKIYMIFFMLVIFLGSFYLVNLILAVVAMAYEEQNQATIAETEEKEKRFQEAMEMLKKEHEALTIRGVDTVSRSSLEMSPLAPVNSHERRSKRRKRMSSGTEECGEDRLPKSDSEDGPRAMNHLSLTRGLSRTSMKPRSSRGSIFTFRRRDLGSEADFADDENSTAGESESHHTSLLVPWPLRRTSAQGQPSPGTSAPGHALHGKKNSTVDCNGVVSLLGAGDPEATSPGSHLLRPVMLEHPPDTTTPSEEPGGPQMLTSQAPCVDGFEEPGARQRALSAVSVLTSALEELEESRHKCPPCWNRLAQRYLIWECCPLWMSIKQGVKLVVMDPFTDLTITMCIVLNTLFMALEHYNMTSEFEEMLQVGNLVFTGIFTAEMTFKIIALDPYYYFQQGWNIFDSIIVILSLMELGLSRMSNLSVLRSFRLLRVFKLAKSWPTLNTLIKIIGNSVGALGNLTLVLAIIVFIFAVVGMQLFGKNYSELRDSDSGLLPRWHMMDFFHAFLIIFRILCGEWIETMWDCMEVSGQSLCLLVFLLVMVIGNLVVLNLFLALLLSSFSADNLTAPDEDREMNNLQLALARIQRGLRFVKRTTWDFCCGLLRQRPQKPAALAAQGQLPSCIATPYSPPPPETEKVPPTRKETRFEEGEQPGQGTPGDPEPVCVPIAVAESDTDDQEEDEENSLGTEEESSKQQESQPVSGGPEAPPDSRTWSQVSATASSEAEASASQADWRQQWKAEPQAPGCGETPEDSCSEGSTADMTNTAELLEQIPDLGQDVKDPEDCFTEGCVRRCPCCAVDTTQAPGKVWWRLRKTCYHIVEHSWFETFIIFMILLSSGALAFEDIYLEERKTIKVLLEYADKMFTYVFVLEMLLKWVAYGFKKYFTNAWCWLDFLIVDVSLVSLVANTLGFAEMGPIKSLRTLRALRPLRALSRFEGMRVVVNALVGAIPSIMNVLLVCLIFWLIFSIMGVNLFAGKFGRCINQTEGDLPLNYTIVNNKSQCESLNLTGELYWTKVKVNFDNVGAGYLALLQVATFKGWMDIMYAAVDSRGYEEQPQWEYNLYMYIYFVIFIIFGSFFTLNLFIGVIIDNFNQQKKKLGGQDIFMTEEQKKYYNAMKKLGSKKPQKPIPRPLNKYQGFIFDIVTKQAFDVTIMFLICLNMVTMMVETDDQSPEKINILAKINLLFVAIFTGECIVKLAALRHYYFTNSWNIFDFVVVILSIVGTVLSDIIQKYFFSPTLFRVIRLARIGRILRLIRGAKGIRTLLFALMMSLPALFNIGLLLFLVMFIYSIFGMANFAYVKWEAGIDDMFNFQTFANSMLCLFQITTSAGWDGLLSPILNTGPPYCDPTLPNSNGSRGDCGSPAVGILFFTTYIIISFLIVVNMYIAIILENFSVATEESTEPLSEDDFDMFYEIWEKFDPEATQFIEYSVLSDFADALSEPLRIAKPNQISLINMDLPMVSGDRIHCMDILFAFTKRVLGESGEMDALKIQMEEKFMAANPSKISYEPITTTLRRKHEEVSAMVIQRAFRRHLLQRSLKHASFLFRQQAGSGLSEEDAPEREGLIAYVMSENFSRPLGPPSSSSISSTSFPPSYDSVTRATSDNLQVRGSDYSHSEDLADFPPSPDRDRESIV

For `O=c1oc2cc(S(=O)(=O)Nc3ncns3)ccc2n1Cc1cccc(C2=CCCNC2)c1` [Compound 3-15, 2-oxo-3-[3-(1,2,5,6-tetrahydropyridin-3-yl)benzyl]-N-1,2,4-thiadiazol-5-yl-2,3-dihydro-1,3-benzoxazole-6-sulfonamide], in experiment [1], the IC50 came to 646 nM.
Still for that read-out and setting: the same measure for `O=c1oc2cc(S(=O)(=O)Nc3ncns3)ccc2n1Cc1ccccc1-c1ccnc(CN2CCCCC2)c1` [Compound 3-10, 2-oxo-3-{2-[2-(piperidin-1-ylmethyl)pyridin-4-yl]benzyl}-N-1,2,4-thiadiazol-5-yl-2,3-dihydro-1,3-benzoxazole-6-sulfonamide]: 1740 nM.
As to `O=c1oc2cc(S(=O)(=O)Nc3ncns3)ccc2n1Cc1cccc(C2=CCNCC2)c1` [Compound 3-16, 2-oxo-3-[3-(1,2,3,6-tetrahydropyridin-4-yl)benzyl]-N-1,2,4-thiadiazol-5-yl-2,3-dihydro-1,3-benzoxazole-6-sulfonamide], in experiment [2], the “ratio of Nav 1.5:Nav 1.7 potency, determined by IonWorks measurement” value (“ratio … by IonWorks measurement” for short) is given as greater than 43. Also, in experiment [1], the IC50 was found to be 759 nM.
On to `C=CCC(c1ccccc1)n1c(=O)oc2cc(S(=O)(=O)Nc3ncns3)ccc21` (stereo not drawn) [Compound 4-13, 2-oxo-3-(1-phenylbut-3-en-1-yl)-N-1,2,4-thiadiazol-5-yl-2,3-dihydro-1,3-benzoxazole-6-sulfonamide], for which the IC50 amounted to 272 nM in experiment [1] and 88 nM in experiment [4]. For the same compound, the “ratio of Nav 1.5:Nav 1.7 potency, determined by PatchXpress measurement” value (from here on “ratio … by PatchXpress measurement”) in experiment [3] was 177.
As for `O=c1oc2cc(S(=O)(=O)Nc3ncns3)ccc2n1Cc1cccc(-c2cccc3c2CNCC3)c1` [Compound 3-13, 2-oxo-3-[3-(1,2,3,4-tetrahydroisoquinolin-8-yl)benzyl]-N-1,2,4-thiadiazol-5-yl-2,3-dihydro-1,3-benzoxazole-6-sulfonamide], in experiment [2], the “ratio … by IonWorks measurement” value is reported as greater than 83. The IC50 in experiment [1] was 395 nM.
Regarding `NCc1ccc(Cl)cc1Cn1c(=O)oc2cc(S(=O)(=O)Nc3ncns3)ccc21` [Compound 1-15, 3-[2-(aminomethyl)-5-chlorobenzyl]-2-oxo-N-1,2,4-thiadiazol-5-yl-2,3-dihydro-1,3-benzoxazole-6-sulfonamide], the “ratio … by IonWorks measurement” value in experiment [2] is greater than 55. Besides, the IC50 in experiment [1] is 605 nM.
For `O=c1oc2cc(S(=O)(=O)Nc3ncns3)ccc2n1Cc1ccccc1C1=CCCNC1` [Compound 3-6, 2-oxo-3-[2-(1,2,5,6-tetrahydropyridin-3-yl)benzyl]-N-1,2,4-thiadiazol-5-yl-2,3-dihydro-1,3-benzoxazole-6-sulfonamide], the IC50 in experiment [1] was determined as 287 nM; in experiment [4] it was 329 nM. In experiment [3], the “ratio … by PatchXpress measurement” value is on record as greater than 91.
Regarding `O=c1oc2cc(S(=O)(=O)Nc3ncns3)ccc2n1C(c1ccccc1)C1CC1` (stereo not drawn) [Compound 4-12, 3-[cyclopropyl(phenyl)methyl]-2-oxo-N-1,2,4-thiadiazol-5-yl-2,3-dihydro-1,3-benzoxazole-6-sulfonamide], the “ratio … by IonWorks measurement” value in experiment [2] is given as greater than 32. Moreover, the IC50 in experiment [1] came out at 1040 nM.
In the case of `O=c1oc2cc(S(=O)(=O)Nc3ncns3)ccc2n1C(c1ccccc1)c1ncco1` (stereo not drawn) [Compound 4-10, 3-[1,3-oxazol-2-yl(phenyl)methyl]-2-oxo-N-1,2,4-thiadiazol-5-yl-2,3-dihydro-1,3-benzoxazole-6-sulfonamide], the results for the IC50 in experiment [1] and in experiment [4] were 1330 nM and 643 nM, respectively. Besides, in experiment [3], the “ratio … by PatchXpress measurement” value was greater than 47.
As for `C[C@@H](c1ccccc1)n1c(=O)oc2cc(S(=O)(=O)Nc3ncns3)ccc21` [Compound 4-8, 2-oxo-3-[(1S)-1-phenylethyl]-N-1,2,4-thiadiazol-5-yl-2,3-dihydro-1,3-benzoxazole-6-sulfonamide], the “ratio … by IonWorks measurement” value in experiment [2] is greater than 22. In addition, the IC50 in experiment [1] was 1480 nM.
In the same order, the values of `O=c1oc2cc(S(=O)(=O)Nc3ncns3)ccc2n1Cc1cccc2ccncc12` [Compound 1-17, 3-(isoquinolin-8-ylmethyl)-2-oxo-N-1,2,4-thiadiazol-5-yl-2,3-dihydro-1,3-benzoxazole-6-sulfonamide] are 65 and 216 nM.
Take `O=c1oc2cc(S(=O)(=O)Nc3ncns3)ccc2n1Cc1cccc(C2=CCNCCC2)c1` [Compound 3-17, 2-oxo-3-[3-(2,5,6,7-tetrahydro-1H-azepin-4-yl)benzyl]-N-1,2,4-thiadiazol-5-yl-2,3-dihydro-1,3-benzoxazole-6-sulfonamide]: in experiment [2], the “ratio … by IonWorks measurement” value is recorded as greater than 40. For the same compound, the IC50 in experiment [1] turned out to be 827 nM.
As to `O=c1oc2cc(S(=O)(=O)Nc3ncns3)ccc2n1Cc1cccc(-c2ccc3c(c2)CNCC3)c1` [Compound 3-12, 2-oxo-3-[3-(1,2,3,4-tetrahydroisoquinolin-7-yl)benzyl]-N-1,2,4-thiadiazol-5-yl-2,3-dihydro-1,3-benzoxazole-6-sulfonamide], the IC50 in experiment [1] worked out at 287 nM; in experiment [4] it was 545 nM. The “ratio … by PatchXpress measurement” value in experiment [3] is listed as 55.
`O=c1oc2cc(S(=O)(=O)Nc3ncns3)ccc2n1Cc1cccc(-c2cccc3c2CCNC3)c1` [Compound 3-14, 2-oxo-3-[3-(1,2,3,4-tetrahydroisoquinolin-5-yl)benzyl]-N-1,2,4-thiadiazol-5-yl-2,3-dihydro-1,3-benzoxazole-6-sulfonamide]: the “ratio … by IonWorks measurement” value in experiment [2] came out at 35. The IC50 in experiment [1] amounted to 430 nM.
Regarding `O=c1oc2cc(S(=O)(=O)Nc3ncns3)ccc2n1Cc1cccc2c1CCNC2` [Compound 1-16, 2-oxo-3-(1,2,3,4-tetrahydroisoquinolin-5-ylmethyl)-N-1,2,4-thiadiazol-5-yl-2,3-dihydro-1,3-benzoxazole-6-sulfonamide], the IC50 is 1690 nM in experiment [1] and 3210 nM in experiment [4]. Besides, in experiment [3], the “ratio … by PatchXpress measurement” value was greater than 9.
Consider `O=c1oc2cc(S(=O)(=O)Nc3ncns3)ccc2n1Cc1ccccc1-c1ccccc1N1CCNCC1` [Compound 3-9, 2-oxo-3-[(2′-piperazin-1-ylbiphenyl-2-yl)methyl]-N-1,2,4-thiadiazol-5-yl-2,3-dihydro-1,3-benzoxazole-6-sulfonamide], for which, in experiment [2], the “ratio … by IonWorks measurement” value is recorded as greater than 59. The IC50 in experiment [1] came out at 563 nM.
On to `O=c1oc2cc(S(=O)(=O)Nc3ncns3)ccc2n1Cc1cccc(C2=CC3CCC(C2)N3)c1` (stereo not drawn) [Compound 3-18, 3-[3-(8-azabicyclo[3.2.1]oct-2-en-3-yl)benzyl]-2-oxo-N-1,2,4-thiadiazol-5-yl-2,3-dihydro-1,3-benzoxazole-6-sulfonamide], for which the IC50 in experiment [1] stood at 1330 nM.
`CC(c1ccccn1)n1c(=O)oc2cc(S(=O)(=O)Nc3ncns3)c(F)cc21` (stereo not drawn) [Compound 13-6, 5-fluoro-2-oxo-3-(1-pyridin-2-ylethyl)-N-1,2,4-thiadiazol-5-yl-2,3-dihydro-1,3-benzoxazole-6-sulfonamide]: the “ratio … by IonWorks measurement” value in experiment [2] is listed as greater than 511. Besides, in experiment [1], the IC50 came out at 65 nM.
Turning to `CCCN1CCc2cccc(Cn3c(=O)oc4cc(S(=O)(=O)Nc5ncns5)ccc43)c2C1` [Compound 6-3, 2-oxo-3-[(2-propyl-1,2,3,4-tetrahydroisoquinolin-8-yl)methyl]-N-1,2,4-thiadiazol-5-yl-2,3-dihydro-1,3-benzoxazole-6-sulfonamide], in experiment [1], the IC50 stood at 642 nM.
On to `Nc1cc2cccc(Cn3c(=O)oc4cc(S(=O)(=O)Nc5ncns5)c(F)cc43)c2cn1` [Compound 27-5, 3-((3-aminoisoquinolin-8-yl)methyl)-5-fluoro-2-oxo-N-(1,2,4-thiadiazol-5-yl)-2,3-dihydrobenzo[d]oxazole-6-sulfonamide], for which the “ratio … by PatchXpress measurement” value in experiment [3] is on record as 450. The IC50 in experiment [4] was 67 nM.
Consider `COC(=O)[C@H](c1ccccc1)n1c(=O)oc2cc(S(=O)(=O)Nc3nccs3)ccc21` [Compound 41-6, methyl (2S)-[2-oxo-6-(1,3-thiazol-2-ylsulfamoyl)-1,3-benzoxazol-3(2H)-yl](phenyl)ethanoate], for which the “ratio … by PatchXpress measurement” value in experiment [3] was found to be 54. Also, in experiment [4], the IC50 worked out at 553 nM.
`C[C@H](c1ccccc1C#CCO)n1c(=O)oc2cc(S(=O)(=O)Nc3ncns3)c(F)cc21` [Compound 17-9, 5-fluoro-3-{(1R)-1-[2-(3-hydroxyprop-1-yn-1-yl)phenyl]ethyl}-2-oxo-N-1,2,4-thiadiazol-5-yl-2,3-dihydro-1,3-benzoxazole-6-sulfonamide]: the “ratio … by PatchXpress measurement” value in experiment [3] is on record as 45. In addition, the IC50 in experiment [4] stood at 58 nM.

The record behind these values is US9273040B2 (Merck Sharp & Dohme Corp., priority 2011, dated 2016).
